From US20020045638A1, “Method of treating estrogen receptor positive carcinoma” (priority 2000, published 2002)

Assays:
[1] = test system: MCF-7 tumors; assay: Growth of MCF-7 breast carcinoma implanted in nude mice; format: in vivo; details: for Tumor size (mean ± standard error): 20 mg/kg ERA-923 PO qd days 1-35
Description: In the third standard pharmacological test procedure, mice implanted with MCF-7 tumors were treated with a combination of ERA-923 and CCI-779. […] ERA-923 was dissolved in 1% Tween 80 and 0.9% NaCl Injection USP. Drug was aliquoted into daily doses using 10.0 ml glass bottles and frozen at −20° C. until needed. CCI-779 was made fresh using a 5% ETOH, 4.9% Phosal and 0.1% Tween 80 in Sterile Water. 0.2 ml of each drug was given orally starting the day after tumor implantation. ERA 923 was given daily for the duration of the experiment and CCI-779 was given every other day for the first 10 days. The control vehicles were given on the same regime as the drugs. MCF7 cells were cultured in IMEM containing 5% Fetal Bovine Serum with passages varying from 2-20. After trypsinization tumors were resuspended in IMEM with 2% Serum at a 1:1 ratio with Matrigel. 10 million cells were injected subcutaneously into the mammary tissue of each mouse using a 1.0 ml tuberculin syringe with a 23 3/4 gauge needle. Five to six week old female ovariectomized athymic nu/nu mice (Charles River Labs: Wilmington, Mass.) weighing from 20.0-23.0 g were used. The animals were housed 5 to a cage in a Microisolator Open Rack System (Lab Products: Maywood, N.J.). Each mouse received a 17β-Estradiol pellet (0.72 mg/pellet-60 day release). The pellets were injected with a 10 gauge trochar into the lateral side of the neck between the ear and the shoulder 1-2 weeks prior to tumor injection. Control groups were 15 mice/vehicle whereas the drug groups were 10 mice/drug. Tumors were measured weekly by means of solar calipers (Cole-Parmer Instuments: Vernon Hills, Ill.) and tumor weights were estimated from tumor diameters by the following formula:
Tumor weight (mg)=tumor length (mm)×tumor width (mm)^2/2.
Mice were euthanized 36 days after tumor injection by CO2 inhalation. […] Nude mice bearing MCF-7 tumors were given ERA-923, CCI-779 or the combination of both drugs.

[2] = test system: MCF-7 human breast cancer cells; assay: Inhibition of growth of MCF-7 breast cancer cells (MTT), with MacSynergy II synergy analysis;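 further: cells treated five or six days with single agents or combinations, growth read by MTT, synergy surface equals observed % inhibition minus Bliss additive prediction, values under 0% signal antagonism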
Description: MCF-7 human breast cancer cells were maintained at 37° C. in a humidified atmosphere of 5% CO2 and 95% air in IMEM medium supplemented with 10% fetal bovine serum. […] One day before the experiment, cells were plated in 96-well plates at a cell density of 2,500 cells/well in IMEM medium supplemented with 10% fetal bovine serum. The next day, cells were treated with various concentrations of antiestrogen and rapamycin 42-ester with 3-hydroxy-2-(hydroxymethyl)-2-methylpropionic acid (referred to as CCI-779 in the tables below). Five or six-days later, cell growth was monitored. MTT solution (20 ul) (0.5 mg/ml) was added to each well and cells were incubated for an additional 4 h. The solution was then removed and 150 ul of DMSO added. The intensity of dark blue color corresponding to number of cells was read at 540 nm with an automated plate reader.
Briefly, theoretical additive interactions were calculated from the dose-response curves of each individual drug based on Bliss independence model. The calculated additive surface was then subtracted from the experimental surface to obtain a synergy surface representing % inhibition above the calculated additive value-synergy index. […] Likewise, any peak below the 0% plane is indicative of antagonism.

[3] = test system: BG-1 human ovarian cancer cells; assay: Inhibition of growth of BG-1 ovarian cancer cells (MTT), with MacSynergy II synergy analysis; format: cell-based; details: for Percent Inhibition: Table G, CCI-779 0 nM
Description: In these test procedures, rapamycin 42-ester with 3-hydroxy-2-(hydroxymethyl)-2-methylpropionic acid was used as a representative rapamycin, and 2-(4-hydroxy-phenyl)-3-methyl-1-[4-(2-piperdin-1-yl-ethoxy)-benzyl-1 H-indol-5-ol, raloxifene, and 4-hydroxytamoxifen were used as representative antiestrogens.
One day before the experiment, cells were plated in 96-well plates at a cell density of 2,500 cells/well in IMEM medium supplemented with 10% fetal bovine serum. The next day, cells were treated with various concentrations of antiestrogen and rapamycin 42-ester with 3-hydroxy-2-(hydroxymethyl)-2-methylpropionic acid (referred to as CCI-779 in the tables below). Five or six-days later, cell growth was monitored.

[4] = MCF-7, antiestrogen in combination with CCI-779, MacSynergy II, Bliss independence model
[5] = BG-1, antiestrogen in combination with CCI-779, MacSynergy II, Bliss independence model

Cc1c(-c2ccc(O)cc2)n(Cc2ccc(OCCN3CCCCC3)cc2)c2ccc(O)cc12 [ERA-923]
Tumor size (mean ± standard error) ([1]; day 14 after tumor implantation): 480 ± 91 mg
Tumor size (mean ± standard error) ([1]; day 21 after tumor implantation): 679 ± 127 mg
Tumor size (mean ± standard error) ([1]; day 28 after tumor implantation): 842 ± 163 mg
Tumor size (mean ± standard error) ([1]; day 36 after tumor implantation): 993 ± 197 mg
inhibition of tumor growth ([1]; nude mice bearing MCF-7 tumors, growth inhibition=experimental value−200 (baseline)/control value −200): approximately 35%
increase of growth-inhibitory effect as estimated by the IC50 ([2]; ERA-923 in the presence of non-inhibitory concentrations of CCI-779): approximately 10 fold
Antagonsim [2, 4]: 0.0 μM^2%
Synergy [2, 4]: 138.0 μM^2%
Percent Inhibition ([2]; Table A, CCI-779 0 nM, ERA-923 0.25 nM): 9%
Percent Inhibition ([2]; Table A, CCI-779 0 nM, ERA-923 0.5 nM): 7.59%
Percent Inhibition ([2]; Table A, CCI-779 0 nM, ERA-923 1 nM): 37.56%
Percent Inhibition ([2]; Table A, CCI-779 0 nM, ERA-923 2 nM): 54.65%
Percent Inhibition ([2]; Table A, CCI-779 0 nM, ERA-923 3 nM): 59.39%
Percent Inhibition ([2]; Table A, CCI-779 0 nM, ERA-923 4 nM): 60.04%
Percent Inhibition ([2]; Table A, CCI-779 0 nM, ERA-923 5 nM): 61.12%
Percent Inhibition ([2]; Table D, ERA-923 0 nM + ERA-923 0.25 nM): −0.78%
Percent Inhibition ([2]; Table D, ERA-923 0 nM + ERA-923 0.5 nM): 26.09%
Percent Inhibition ([2]; Table D, ERA-923 0 nM + ERA-923 1 nM): 54.91%
Percent Inhibition ([2]; Table D, ERA-923 0 nM + ERA-923 2 nM): 71.82%
Percent Inhibition ([2]; Table D, ERA-923 0 nM + ERA-923 3 nM): 87.65%
Percent Inhibition ([2]; Table D, ERA-923 0 nM + ERA-923 4 nM): 78.72%
Percent Inhibition ([2]; Table D, ERA-923 0 nM + ERA-923 5 nM): 79.25%
Percent Inhibition ([2]; Table D, ERA-923 0.25 nM + ERA-923 0 nM): 6.69%
Percent Inhibition ([2]; Table D, ERA-923 0.25 nM + ERA-923 0.25 nM): 35.93%
Percent Inhibition ([2]; Table D, ERA-923 0.25 nM + ERA-923 0.5 nM): 56.79%
Percent Inhibition ([2]; Table D, ERA-923 0.25 nM + ERA-923 1 nM): 64.27%
Percent Inhibition ([2]; Table D, ERA-923 0.25 nM + ERA-923 2 nM): 76.33%
Percent Inhibition ([2]; Table D, ERA-923 0.25 nM + ERA-923 3 nM): 78.99%
Percent Inhibition ([2]; Table D, ERA-923 0.25 nM + ERA-923 4 nM): 78.39%
Percent Inhibition ([2]; Table D, ERA-923 0.25 nM + ERA-923 5 nM): 79.68%
Percent Inhibition ([2]; Table D, ERA-923 0.5 nM + ERA-923 0 nM): 8.17%
Percent Inhibition ([2]; Table D, ERA-923 0.5 nM + ERA-923 0.25 nM): 53.61%
Percent Inhibition ([2]; Table D, ERA-923 0.5 nM + ERA-923 0.5 nM): 63.08%
Percent Inhibition ([2]; Table D, ERA-923 0.5 nM + ERA-923 1 nM): 68.58%
Percent Inhibition ([2]; Table D, ERA-923 0.5 nM + ERA-923 2 nM): 73.71%
Percent Inhibition ([2]; Table D, ERA-923 0.5 nM + ERA-923 3 nM): 81.21%
Percent Inhibition ([2]; Table D, ERA-923 0.5 nM + ERA-923 4 nM): 79.57%
Percent Inhibition ([2]; Table D, ERA-923 0.5 nM + ERA-923 5 nM): 81.43%
Percent Inhibition ([2]; Table D, ERA-923 1 nM + ERA-923 0 nM): 42.1%
Percent Inhibition ([2]; Table D, ERA-923 1 nM + ERA-923 0.25 nM): 66.83%
Percent Inhibition ([2]; Table D, ERA-923 1 nM + ERA-923 0.5 nM): 75.09%
Percent Inhibition ([2]; Table D, ERA-923 1 nM + ERA-923 1 nM): 74.24%
Percent Inhibition ([2]; Table D, ERA-923 1 nM + ERA-923 2 nM): 74.07%
Percent Inhibition ([2]; Table D, ERA-923 1 nM + ERA-923 3 nM): 76.56%
Percent Inhibition ([2]; Table D, ERA-923 1 nM + ERA-923 4 nM): 80.45%
Percent Inhibition ([2]; Table D, ERA-923 1 nM + ERA-923 5 nM): 82.97%
Percent Inhibition ([2]; Table D, ERA-923 2 nM + ERA-923 0 nM): 67.81%
Percent Inhibition ([2]; Table D, ERA-923 2 nM + ERA-923 0.25 nM): 74.73%
Percent Inhibition ([2]; Table D, ERA-923 2 nM + ERA-923 0.5 nM): 75.08%
Percent Inhibition ([2]; Table D, ERA-923 2 nM + ERA-923 1 nM): 75.36%
Percent Inhibition ([2]; Table D, ERA-923 2 nM + ERA-923 2 nM): 75.03%
Percent Inhibition ([2]; Table D, ERA-923 2 nM + ERA-923 3 nM): 78.5%
Percent Inhibition ([2]; Table D, ERA-923 2 nM + ERA-923 4 nM): 81.23%
Percent Inhibition ([2]; Table D, ERA-923 2 nM + ERA-923 5 nM): 82.02%
Percent Inhibition ([2]; Table D, ERA-923 3 nM + ERA-923 0 nM): 52.23%
Percent Inhibition ([2]; Table D, ERA-923 3 nM + ERA-923 0.25 nM): 75.24%
Percent Inhibition ([2]; Table D, ERA-923 3 nM + ERA-923 0.5 nM): 76.06%
Percent Inhibition ([2]; Table D, ERA-923 3 nM + ERA-923 1 nM): 77.68%
Percent Inhibition ([2]; Table D, ERA-923 3 nM + ERA-923 2 nM): 76.67%
Percent Inhibition ([2]; Table D, ERA-923 3 nM + ERA-923 3 nM): 81.51%
Percent Inhibition ([2]; Table D, ERA-923 3 nM + ERA-923 4 nM): 83.2%
Percent Inhibition ([2]; Table D, ERA-923 3 nM + ERA-923 5 nM): 82.87%
Percent Inhibition ([2]; Table D, ERA-923 4 nM + ERA-923 0 nM): 74.49%
Percent Inhibition ([2]; Table D, ERA-923 4 nM + ERA-923 0.25 nM): 79.39%
Percent Inhibition ([2]; Table D, ERA-923 4 nM + ERA-923 0.5 nM): 80.92%
Percent Inhibition ([2]; Table D, ERA-923 4 nM + ERA-923 1 nM): 77.2%
Percent Inhibition ([2]; Table D, ERA-923 4 nM + ERA-923 2 nM): 78.2%
Percent Inhibition ([2]; Table D, ERA-923 4 nM + ERA-923 3 nM): 79.28%
Percent Inhibition ([2]; Table D, ERA-923 4 nM + ERA-923 4 nM): 83.28%
Percent Inhibition ([2]; Table D, ERA-923 4 nM + ERA-923 5 nM): 85.92%
Antagonsim [3, 5]: 0.0 μM^2%
Synergy [3, 5]: 25.9 μM^2%
Percent Inhibition ([3]; ERA-923 0.25 nM): 14.72%
Percent Inhibition ([3]; ERA-923 0.5 nM): 24.14%
Percent Inhibition ([3]; ERA-923 1 nM): 48.93%
Percent Inhibition ([3]; ERA-923 2 nM): 57.19%
Percent Inhibition ([3]; ERA-923 3 nM): 72.54%
Percent Inhibition ([3]; ERA-923 4 nM): 80.34%
Percent Inhibition ([3]; ERA-923 5 nM): 75.94%
